Source: ChEMBL document CHEMBL1149707, “Structure-activity relationship studies of carboxamido-biaryl ethers as opioid receptor antagonists (OpRAs). Part 1” (Bioorg Med Chem Lett, 2007)

Tests used:
[1] = molecular target: T1, Delta-type opioid receptor (Homo sapiens, UniProt P41143); experiment: Displacement of [3H]bremazocine from human delta opioid receptor expressed in CHO cells in presence of high sodium by SPA; format: cell-based
Mu-type opioid receptor [2] = molecular target: T2, Mu-type opioid receptor (Homo sapiens, UniProt P35372); experiment: Displacement of [3H]diprenorphine from human mu opioid receptor expressed in CHO cells in presence of high sodium by SPA; format: cell-based
[3] = molecular target: T3, Kappa-type opioid receptor (Homo sapiens, UniProt P41145); experiment: Displacement of [3H]diprenorphine from human kappa opioid receptor expressed in CHO cells in presence of high sodium by SPA; format: cell-based
Mu-type opioid receptor [4] = molecular target: T2, Mu-type opioid receptor; experiment: Antagonist activity at human mu opioid receptor expressed in CHO cells by [35S]GTP-gamma-S binding assay; format: functional, cell-based
[5] = molecular target: T3, Kappa-type opioid receptor; experiment: Antagonist activity at human kappa opioid receptor expressed in CHO cells by [35S]GTP-gamma-S binding assay; format: functional, cell-based
[6] = molecular target: T1, Delta-type opioid receptor; experiment: Antagonist activity at human delta opioid receptor expressed in CHO cells by [35S]GTP-gamma-S binding assay; format: functional, cell-based

T2 sequence (P35372 whole entry): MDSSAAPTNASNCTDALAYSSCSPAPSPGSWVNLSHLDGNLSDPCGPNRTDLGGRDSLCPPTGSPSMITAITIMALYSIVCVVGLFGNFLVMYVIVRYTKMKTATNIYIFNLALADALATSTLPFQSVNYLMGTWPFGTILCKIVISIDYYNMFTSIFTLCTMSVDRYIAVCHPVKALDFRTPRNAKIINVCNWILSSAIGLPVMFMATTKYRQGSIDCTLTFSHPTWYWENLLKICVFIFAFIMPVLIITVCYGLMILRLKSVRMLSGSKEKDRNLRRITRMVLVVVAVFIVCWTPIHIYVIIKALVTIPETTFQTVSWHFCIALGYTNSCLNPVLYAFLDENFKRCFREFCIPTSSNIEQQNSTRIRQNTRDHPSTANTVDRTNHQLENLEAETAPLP
T3 sequence (P41145 whole entry): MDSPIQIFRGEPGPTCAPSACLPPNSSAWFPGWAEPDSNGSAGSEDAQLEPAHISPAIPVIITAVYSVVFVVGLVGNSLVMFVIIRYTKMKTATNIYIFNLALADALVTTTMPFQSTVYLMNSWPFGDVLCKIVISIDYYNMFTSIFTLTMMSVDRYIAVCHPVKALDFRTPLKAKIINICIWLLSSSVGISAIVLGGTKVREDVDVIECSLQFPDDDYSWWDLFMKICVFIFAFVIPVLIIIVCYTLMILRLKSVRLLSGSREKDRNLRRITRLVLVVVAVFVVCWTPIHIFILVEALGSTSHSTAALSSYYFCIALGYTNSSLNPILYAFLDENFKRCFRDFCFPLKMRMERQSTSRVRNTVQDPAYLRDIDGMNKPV
T1 sequence (P41143 whole entry): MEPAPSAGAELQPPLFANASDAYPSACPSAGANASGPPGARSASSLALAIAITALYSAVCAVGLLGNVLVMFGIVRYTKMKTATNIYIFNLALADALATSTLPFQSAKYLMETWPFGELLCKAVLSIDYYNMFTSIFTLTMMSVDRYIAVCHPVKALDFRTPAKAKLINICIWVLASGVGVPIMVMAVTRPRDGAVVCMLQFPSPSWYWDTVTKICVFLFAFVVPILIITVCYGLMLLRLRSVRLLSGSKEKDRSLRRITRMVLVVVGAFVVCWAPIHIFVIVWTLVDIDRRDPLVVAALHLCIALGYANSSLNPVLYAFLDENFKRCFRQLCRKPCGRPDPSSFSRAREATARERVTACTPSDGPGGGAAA

SMILES	Ki [1]	Ki (Mu-type opioid receptor [2])	Ki [3]	Ki (Mu-type opioid receptor [4])	Ki [5]	Kb [6]
CNC(=O)c1ccc(Oc2ccc(CNCCc3ccccc3)cc2)nc1	718 nM	52.3 nM	> 5000 nM	–	–	–
NC(=O)c1ccc(Oc2ccc(CNCCc3ccccc3)cc2)cn1	8.54 nM	1.77 nM	69.3 nM	0.44 nM	9.6 nM	2.86 nM
NC(=O)c1cccc(Oc2ccc(CCNCc3ccccc3)cc2)n1	> 5000 nM	643 nM	> 5000 nM	–	–	–
NC(=O)c1ccc(Oc2ccc(CCCNCc3ccccc3)cc2)nc1	–	–	–	22.3 nM	45.8 nM	496 nM
NS(=O)(=O)c1ccc(Oc2ccc(CCNCc3ccccc3)cc2)cc1	> 5000 nM	> 2500 nM	> 5000 nM	–	–	–
C[C@H]1CN(CC[C@H](O)C2CCCCC2)CC[C@@]1(C)c1cccc(O)c1	4.82 nM	–	–	–	–	1.19 nM
NC(=O)c1ccc(Oc2ccc(CCNCCc3ccccc3)cc2)nc1	–	–	–	16.6 nM	23.3 nM	128 nM
CNC(=N)c1ccc(Oc2ccc(CNCCc3ccccc3)cc2)nc1	3460 nM	235 nM	> 5000 nM	–	–	–
CC(C)NC(=O)c1ccc(Oc2ccc(CNCCc3ccccc3)cc2)nc1	2410 nM	52.3 nM	> 5000 nM	–	–	–
NC(=O)c1ccc(Oc2ccc(CCNCc3ccccc3)cc2)nc1	70.2 nM	7.44 nM	136 nM	2.25 nM	18.4 nM	23.1 nM
NC(=O)c1cccnc1Oc1ccc(CCNCc2ccccc2)cc1	> 5000 nM	> 2500 nM	> 5000 nM	–	–	–
CCNC(=O)c1ccc(Oc2ccc(CNCCc3ccccc3)cc2)nc1	674 nM	57.1 nM	2810 nM	–	–	–
O=C(O)c1ccc(Oc2ccc(CCNCc3ccccc3)cc2)nc1	> 5000 nM	> 2500 nM	> 5000 nM	–	–	–
NC(=O)c1ccc(Oc2ccc(CCNCCCc3ccccc3)cc2)nc1	–	–	–	18.5 nM	24.1 nM	212 nM
NC(=O)c1ccc(Oc2ccc(CNCCc3ccccc3)cc2)nc1	–	0.17 nM	–	0.07 nM	–	–

Further lines, results first:

Ki [1]	Ki (Mu-type opioid receptor [2])	Ki [3]	Ki (Mu-type opioid receptor [4])	Ki [5]	Kb [6]	SMILES
–	–	–	> 1000 nM	> 1000 nM	> 1000 nM	NC(=O)c1ccc(Oc2ccc(NCCCc3ccccc3)cc2)nc1
> 5000 nM	> 2500 nM	> 5000 nM	–	–	–	NCc1ccc(Oc2ccc(CCNCc3ccccc3)cc2)nc1
> 5000 nM	389 nM	> 5000 nM	–	–	–	O=C(c1ccc(Oc2ccc(CNCCc3ccccc3)cc2)nc1)N1CCCCC1
–	–	–	4.09 nM	2.47 nM	54.1 nM	NC(=O)c1ccc(Oc2ccc(CNCc3ccccc3)cc2)nc1
–	–	15 nM	–	1.22 nM	–	NC(=O)c1ccc(Oc2ccc(CNCCc3ccccc3)cc2)cc1
> 5000 nM	1080 nM	> 5000 nM	–	–	–	N#Cc1ccc(Oc2ccc(CCNCc3ccccc3)cc2)nc1
215 nM	20.6 nM	1150 nM	–	–	–	N=C(N)c1ccc(Oc2ccc(CNCCc3ccccc3)cc2)nc1
> 5000 nM	> 2500 nM	> 5000 nM	–	–	–	NC(=O)c1ccnc(Oc2ccc(CCNCc3ccccc3)cc2)c1
–	–	–	> 1000 nM	> 1000 nM	> 1000 nM	NC(=O)c1ccc(Oc2ccc(CCCNc3ccccc3)cc2)nc1
